PubChem BioAssay (NCI)
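Here, GI50 denotes the concentration required for 50% inhibition of growth. TGI: total growth inhibition.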

Assays:
Assay in all cases: growth of human tumour cells (NCI), 384-well format
A549 NSCLC = tested on: A549 NSCLC
BT-549 breast = tested on: BT-549 breast
CCRF-CEM leukemia = tested on: CCRF-CEM leukemia
DU-145 prostate = tested on: DU-145 prostate
EKVX NSCLC = tested on: EKVX NSCLC
HCC-2998 colon = tested on: HCC-2998 colon
HCT-15 colon = tested on: HCT-15 colon
HL-60(TB) leukemia = tested on: HL-60(TB) leukemia
HOP-62 NSCLC = tested on: HOP-62 NSCLC
HOP-92 NSCLC = tested on: HOP-92 NSCLC
HS 578T breast = tested on: HS 578T breast
HT29 colon = tested on: HT29 colon
IGROV1 ovarian = tested on: IGROV1 ovarian
KM12 colon = tested on: KM12 colon
M14 melanoma = tested on: M14 melanoma
MALME-3M melanoma = tested on: MALME-3M melanoma
MDA-MB-231 breast = tested on: MDA-MB-231 breast
MDA-MB-435 melanoma = tested on: MDA-MB-435 melanoma
MOLT-4 leukemia = tested on: MOLT-4 leukemia
NCI-H226 lung = tested on: NCI-H226 lung
NCI-H23 lung = tested on: NCI-H23 lung
NCI-H322M lung = tested on: NCI-H322M lung
NCI-H460 NSCLC = tested on: NCI-H460 NSCLC
OVCAR-3 ovarian = tested on: OVCAR-3 ovarian
OVCAR-8 ovarian = tested on: OVCAR-8 ovarian
PC-3 prostate = tested on: PC-3 prostate
RPMI-8226 leukemia = tested on: RPMI-8226 leukemia
RXF 393 renal = tested on: RXF 393 renal
SF-268 CNS = tested on: SF-268 CNS
SF-539 CNS = tested on: SF-539 CNS
SK-MEL-28 melanoma = tested on: SK-MEL-28 melanoma
SK-MEL-5 melanoma = tested on: SK-MEL-5 melanoma
SK-OV-3 ovarian = tested on: SK-OV-3 ovarian
SN12C renal = tested on: SN12C renal
SNB-19 CNS = tested on: SNB-19 CNS
SNB-75 CNS = tested on: SNB-75 CNS
SR leukemia = tested on: SR leukemia
T-47D breast = tested on: T-47D breast
TK-10 renal = tested on: TK-10 renal
U251 glioblastoma = tested on: U251 glioblastoma
UACC-257 melanoma = tested on: UACC-257 melanoma
UACC-62 melanoma = tested on: UACC-62 melanoma

`COc1ccc(F)c(F)c1C(=O)c1cnc(NC2CCN(S(C)(=O)=O)CC2)nc1N` showed a GI50 (A549 NSCLC) of 169 nM, a TGI (A549 NSCLC) of over 100000 nM and a GI50 (BT-549 breast) of 44.1 nM. It also gave a TGI (BT-549 breast) of 434 nM, a GI50 (CCRF-CEM leukemia) of 72 nM and a TGI (CCRF-CEM leukemia) of 234 nM. The GI50 (DU-145 prostate) was 211 nM, the TGI (DU-145 prostate) was 977 nM and the GI50 (EKVX NSCLC) was 424 nM. The TGI (EKVX NSCLC) was 3160 nM, the GI50 (HCC-2998 colon) was 289 nM and the TGI (HCC-2998 colon) was 1910 nM. It also gave a GI50 (HCT-15 colon) of 187 nM, a TGI (HCT-15 colon) of over 100000 nM and a GI50 (HL-60(TB) leukemia) of 15.8 nM. The TGI (HL-60(TB) leukemia) was 125 nM, the GI50 (HOP-62 NSCLC) was 135 nM and the TGI (HOP-62 NSCLC) was 466 nM. For the same molecule, the GI50 (HOP-92 NSCLC) was 310 nM, the TGI (HOP-92 NSCLC) was over 100000 nM and the GI50 (HS 578T breast) was 206 nM. For the same molecule, the TGI (HS 578T breast) was 492 nM, the GI50 (HT29 colon) was 206 nM and the TGI (HT29 colon) was 2050 nM. The GI50 (IGROV1 ovarian) was 222 nM, the TGI (IGROV1 ovarian) was over 100000 nM and the GI50 (KM12 colon) was 108 nM. The TGI (KM12 colon) was 456 nM, the GI50 (M14 melanoma) was 346 nM and the TGI (M14 melanoma) was 1640 nM. The GI50 (MALME-3M melanoma) was 379 nM, the TGI (MALME-3M melanoma) was 2000 nM and the GI50 (MDA-MB-231 breast) was 201 nM. It also gave a TGI (MDA-MB-231 breast) of 3700 nM, a GI50 (MDA-MB-435 melanoma) of 251 nM and a TGI (MDA-MB-435 melanoma) of 1600 nM. It also gave a GI50 (MOLT-4 leukemia) of 91.2 nM, a TGI (MOLT-4 leukemia) of 396 nM and a GI50 (NCI-H226 lung) of 164 nM. For the same molecule, the TGI (NCI-H226 lung) was 753 nM, the GI50 (NCI-H23 lung) was 140 nM and the TGI (NCI-H23 lung) was 774 nM. The GI50 (NCI-H322M lung) was 215 nM, the TGI (NCI-H322M lung) was 602 nM and the GI50 (NCI-H460 NSCLC) was 30.2 nM. The TGI (NCI-H460 NSCLC) was 162 nM, the GI50 (OVCAR-3 ovarian) was 305 nM and the TGI (OVCAR-3 ovarian) was 1450 nM. For the same molecule, the GI50 (OVCAR-8 ovarian) was 144 nM, the TGI (OVCAR-8 ovarian) was 917 nM and the GI50 (PC-3 prostate) was 284 nM. It also gave a TGI (PC-3 prostate) of 2130 nM, a GI50 (RPMI-8226 leukemia) of 20.9 nM and a TGI (RPMI-8226 leukemia) of 124 nM. It also gave a GI50 (RXF 393 renal) of 159 nM, a TGI (RXF 393 renal) of 345 nM and a GI50 (SF-268 CNS) of 129 nM. It also gave a TGI (SF-268 CNS) of 361 nM, a GI50 (SF-539 CNS) of 137 nM and a TGI (SF-539 CNS) of 501 nM. For the same molecule, the GI50 (SK-MEL-28 melanoma) was 161 nM, the TGI (SK-MEL-28 melanoma) was 1580 nM and the GI50 (SK-MEL-5 melanoma) was 82 nM. For the same molecule, the TGI (SK-MEL-5 melanoma) was 609 nM, the GI50 (SK-OV-3 ovarian) was 1030 nM and the TGI (SK-OV-3 ovarian) was over 100000 nM. The GI50 (SN12C renal) was 139 nM, the TGI (SN12C renal) was 681 nM and the GI50 (SNB-19 CNS) was 348 nM. For the same molecule, the TGI (SNB-19 CNS) was over 100000 nM, the GI50 (SNB-75 CNS) was 86.4 nM and the TGI (SNB-75 CNS) was 1730 nM. The GI50 (SR leukemia) was 15.7 nM, the TGI (SR leukemia) was 39 nM and the GI50 (T-47D breast) was 306 nM. The TGI (T-47D breast) was over 100000 nM, the GI50 (TK-10 renal) was 304 nM and the TGI (TK-10 renal) was over 100000 nM. The GI50 (U251 glioblastoma) was 278 nM, the TGI (U251 glioblastoma) was over 100000 nM and the GI50 (UACC-257 melanoma) was 1030 nM. For the same molecule, the TGI (UACC-257 melanoma) was 2620 nM, the GI50 (UACC-62 melanoma) was 138 nM and the TGI (UACC-62 melanoma) was 453 nM.
